Results as given in the supplement of paper PMC5908809.

Legend:
[1] = tested on: normal NK cells expanded with K562-aAPC; test: drug sensitivity score (DSS) (DSS units); higher = more sensitive; extreme values may be limits of the assay; conditions: 72 h; IL-2 2.5 ng/mL
Description: (§1)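 Drug sensitivity and resistance testing on K562-aAPC-expanded normal NK cells: 5 concentrations (10-fold steps over a 10,000-fold range), 72 h at 37 °C, viability by CellTiter-Glo normalised to DMSO and benzethonium chloride controls; DSS from the fitted curve.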

NK-YS (IL-2 2.5 ng/mL) [2] = test: as above; conditions: 72 h
KHYG-1 (IL-2 2.5 ng/mL) [3] = test: as above; conditions: 72 h
[4] = tested on: normal primary NK cells, pool 1 (3 donors), resting (IL-2 0 ng/mL); test: as above; conditions: 72 h
[5] = tested on: normal primary NK cells, pool 1 (3 donors) (IL-2 2.5 ng/mL); test: as above; conditions: 72 h
YT (IL-2 2.5 ng/mL) [6] = test: as above; conditions: 72 h
DERL-7 (IL-2 2.5 ng/mL) [7] = test: as above; conditions: 72 h
KAI3 (IL-2 2.5 ng/mL) [8] = test: as above; conditions: 72 h
NKL (IL-2 2.5 ng/mL) [9] = test: as above; conditions: 72 h
SNK-6 (IL-2 2.5 ng/mL) [10] = test: as above; conditions: 72 h
IMC-1 (IL-2 20 ng/mL) [11] = test: as above; conditions: 72 h
[12] = tested on: normal primary NK cells, pool 3 (3 donors) (IL-2 2.5 ng/mL); test: as above; conditions: 72 h
NK-92 (IL-2 2.5 ng/mL) [13] = test: as above; conditions: 72 h
[14] = tested on: normal primary NK cells, pool 2 (3 donors) (IL-2 2.5 ng/mL); test: as above; conditions: 72 h
NK-YS (IL-2 2.5 ng/mL) [15] = test: percent inhibition of viability; higher = more inhibition; conditions: 72 h
KHYG-1 (IL-2 2.5 ng/mL) [16] = test: as above; conditions: 72 h
[17] = tested on: normal primary NK cells, pool 1 (3 donors), resting (IL-2 0 ng/mL); test: as above; conditions: 72 h
[18] = tested on: normal primary NK cells, pool 1 (3 donors) (IL-2 2.5 ng/mL); test: as above; conditions: 72 h
YT (IL-2 2.5 ng/mL) [19] = test: as above; conditions: 72 h
DERL-7 (IL-2 2.5 ng/mL) [20] = test: as above; conditions: 72 h
KAI3 (IL-2 2.5 ng/mL) [21] = test: as above; conditions: 72 h
NKL (IL-2 2.5 ng/mL) [22] = test: as above; conditions: 72 h
SNK-6 (IL-2 2.5 ng/mL) [23] = test: as above; conditions: 72 h
IMC-1 (IL-2 20 ng/mL) [24] = test: as above; conditions: 72 h
[25] = tested on: normal primary NK cells, pool 3 (3 donors) (IL-2 2.5 ng/mL); test: as above; conditions: 72 h
NK-92 (IL-2 2.5 ng/mL) [26] = test: as above; conditions: 72 h
[27] = tested on: normal primary NK cells, pool 2 (3 donors) (IL-2 2.5 ng/mL); test: as above; conditions: 72 h
[28] = tested on: normal NK cells expanded with K562-aAPC; test: as above; conditions: 72 h, IL-2 2.5 ng/mL
Description: as §1

Cc1cc(C(=O)NOCCO)c(Nc2ccc(I)cc2F)n(C)c1=O [AZD-8330] (max concentration tested 10000 nM)
Conditions | drug sensitivity score
DERL-7 (IL-2 2.5 ng/mL) [7] | 15.5
IMC-1 (IL-2 20 ng/mL) [11] | 0
KAI3 (IL-2 2.5 ng/mL) [8] | 0
KHYG-1 (IL-2 2.5 ng/mL) [3] | 20.8
NK-92 (IL-2 2.5 ng/mL) [13] | 0
NK-YS (IL-2 2.5 ng/mL) [2] | 1.5
NKL (IL-2 2.5 ng/mL) [9] | 24.7
SNK-6 (IL-2 2.5 ng/mL) [10] | 0
YT (IL-2 2.5 ng/mL) [6] | 0
[1] | 0
[4] | 3.07
[5] | 1.33
[12] | 0
[14] | 0

percent inhibition of viability [%]
Conditions | 1 nM | 10 nM | 100 nM | 1000 nM | 10000 nM
DERL-7 (IL-2 2.5 ng/mL) [20] | 10.5 | 19.5 | 39.8 | 44.6 | 49.1
IMC-1 (IL-2 20 ng/mL) [24] | -6.12 | -4.24 | -7.8 | -3.57 | 1.54
KAI3 (IL-2 2.5 ng/mL) [21] | 6.6 | 16.3 | 20.9 | 25.5 | 21.5
KHYG-1 (IL-2 2.5 ng/mL) [16] | 4.36 | 28.4 | 50.2 | 60.9 | 59.9
NK-92 (IL-2 2.5 ng/mL) [26] | -20.4 | -31.8 | -23.9 | -11.1 | -34
NK-YS (IL-2 2.5 ng/mL) [15] | 1.92 | 6.63 | 7.16 | 17 | 13.5
NKL (IL-2 2.5 ng/mL) [22] | 9.59 | 36 | 58.2 | 70.4 | 65
SNK-6 (IL-2 2.5 ng/mL) [23] | -15.8 | -23.2 | -25.2 | -18.2 | -8.48
YT (IL-2 2.5 ng/mL) [19] | 1.8 | 1.88 | -1.55 | 5.74 | 3.13
[17] | -12.3 | -10.7 | -6.76 | 10.4 | 33.8
[18] | 1.16 | 3.34 | 2.94 | 11.4 | 20.3
[25] | -7.05 | -12 | -3.49 | 3.69 | 8.96
[27] | -6.21 | -3.9 | 6.25 | 1.91 | 6.61
[28] | 0.89 | -5.14 | 2.35 | 1.49 | 5.67

CN(C)C/C=C/C(=O)Nc1cc2c(Nc3ccc(F)c(Cl)c3)ncnc2cc1O[C@H]1CCOC1 [Afatinib] (max concentration tested 1000 nM)
Conditions | drug sensitivity score
DERL-7 (IL-2 2.5 ng/mL) [7] | 2.57
IMC-1 (IL-2 20 ng/mL) [11] | 0
KAI3 (IL-2 2.5 ng/mL) [8] | 0.41
KHYG-1 (IL-2 2.5 ng/mL) [3] | 0
NK-92 (IL-2 2.5 ng/mL) [13] | 1.32
NK-YS (IL-2 2.5 ng/mL) [2] | 0.66
NKL (IL-2 2.5 ng/mL) [9] | 3.07
SNK-6 (IL-2 2.5 ng/mL) [10] | 0
YT (IL-2 2.5 ng/mL) [6] | 2.06
[1] | 1.97
[4] | 0.88
[5] | 0.16
[12] | 0
[14] | 0.29

percent inhibition of viability [%]
Conditions | 0.1 nM | 1 nM | 10 nM | 100 nM | 1000 nM
DERL-7 (IL-2 2.5 ng/mL) [20] | 1.24 | -0.84 | 3.12 | 3.53 | 40.4
IMC-1 (IL-2 20 ng/mL) [24] | -4.64 | 0.23 | 3.73 | 0.77 | -7.53
KAI3 (IL-2 2.5 ng/mL) [21] | -6.04 | -6.37 | -2.67 | -0.11 | 17.7
KHYG-1 (IL-2 2.5 ng/mL) [16] | 1.25 | 0.47 | 0.09 | 5.88 | 8.01
NK-92 (IL-2 2.5 ng/mL) [26] | -4.74 | -8.88 | -4.7 | 6.1 | 20
NK-YS (IL-2 2.5 ng/mL) [15] | -6.74 | -1.03 | -0.59 | 1.9 | 17.9
NKL (IL-2 2.5 ng/mL) [22] | 4.2 | 5.29 | 8.09 | 15.9 | 30.1
SNK-6 (IL-2 2.5 ng/mL) [23] | 5.26 | 23.4 | 23.4 | 27.9 | -1.27
YT (IL-2 2.5 ng/mL) [19] | 0.42 | 0.78 | 2.66 | 5.09 | 29.2
[17] | 1.52 | -21.3 | -1.76 | -18.2 | 31.8
[18] | 0.9 | -20.4 | -8.14 | -16.9 | 17.6
[25] | -7.17 | -9.3 | 9.58 | -8.16 | 3.09
[27] | -9.45 | -8.4 | 7.17 | -5.73 | 18.4
[28] | -3.84 | -0.9 | 0.35 | 8.86 | 23.9
